Structures are written as SMILES. Activity calls are given as the source filed them. The rule behind the calls is not given here.

The text below walks through data of ChEMBL document CHEMBL5620370, “1,3-Thiazole derivatives as privileged structures for anti-Trypanosoma cruzi activity: Rational design, synthesis, in silico and in vitro studies” (Eur J Med Chem, 2023).

The test system of data set [1] is Trypanosoma cruzi. Briefly: Induction of apoptosis in Trypanosoma cruzi Y strain trypomastigotes assessed as early apoptosis at 1 times IC50 incubated for 24 hrs by Annexin V-FITC/7AAD staining based flow cytometry. The class given is functional, organism-based. A general note: Flow cytometry measures light scatter and fluorescence of single cells or particles in a stream.

The test system of data set [2] is Trypanosoma cruzi. As to the kind of experiment: Induction of apoptosis in Trypanosoma cruzi Y strain trypomastigotes assessed as late apoptosis at 1 times IC50 incubated for 24 hrs by Annexin V-FITC/7AAD staining based flow cytometry. The class given is functional, organism-based.
In data set [3] the test system is Trypanosoma cruzi. As to the kind of experiment: Induction of apoptosis in Trypanosoma cruzi Y strain trypomastigotes assessed as necrosis at 1 times IC50 incubated for 24 hrs by Annexin V-FITC/7AAD staining based flow cytometry. Format: functional, organism-based.
Data set [4] deals with Trypanosoma cruzi. As to the kind of experiment: Induction of apoptosis in Trypanosoma cruzi Y strain trypomastigotes assessed as necrosis at 9.64 uM incubated for 24 hrs by Annexin V-FITC/7AAD staining based flow cytometry. Format: functional, organism-based.
Data set [5] deals with Trypanosoma cruzi. Briefly: Induction of apoptosis in Trypanosoma cruzi Y strain trypomastigotes assessed as fold increase in late apoptosis incubated for 24 hrs by Annexin V-FITC/7AAD staining based flow cytometry. Format: functional.
The nature of data set [6]: Selectivity index, ratio of CC50 for cytotoxicity against mouse RAW264.7 cells to IC50 for antitrypanosomal activity against Trypanosoma cruzi Dm28 epimastigotes assessed as inhibition of parasite growth. Format: toxicity, cell-based. The following applies: read-out: Ratio CC50/IC50.
The subject of data set [7] is Trypanosoma cruzi. Briefly: Induction of mitochondrial membrane potential loss in Trypanosoma cruzi Y strain trypomastigotes at 1 times IC50 incubated for 24 hrs by Rhodamine 123 staining based flow cytometry. Format: organism-based.
Data set [8] has as its system Trypanosoma cruzi. As to the kind of experiment: Induction of apoptosis in Trypanosoma cruzi Y strain trypomastigotes assessed as fold increase in early apoptosis incubated for 24 hrs by Annexin V-FITC/7AAD staining based flow cytometry. Format: functional.
Data set [9] can be described thus: Cytotoxicity against mouse RAW264.7 cells assessed as inhibition of cell growth incubated for 72 hrs by MTT assay. Format: toxicity, cell-based.
In data set [10] the test system is Trypanosoma cruzi. Briefly: Induction of apoptosis in Trypanosoma cruzi Y strain trypomastigotes assessed as early apoptosis at 2 times IC50 incubated for 24 hrs by Annexin V-FITC/7AAD staining based flow cytometry. The class given is functional, organism-based.
The test system of data set [11] is Trypanosoma cruzi. Briefly: Antitrypanosomal activity against Trypanosoma cruzi Y strain trypomastigotes transfected in African green monkey Vero cells assessed as inhibition of parasite growth incubated for 24 hrs by Neubauer chamber based analysis. The class given is functional, organism-based.
Data set [12] relates to Trypanosoma cruzi. As to the kind of experiment: Induction of mitochondrial membrane potential loss in Trypanosoma cruzi Y strain trypomastigotes at 2 times IC50 incubated for 24 hrs by Rhodamine 123 staining based flow cytometry. The class given is organism-based.
Data set [13] can be described thus: Selectivity index, ratio of CC50 for cytotoxicity against mouse RAW264.7 cells to IC50 for antitrypanosomal activity against Trypanosoma cruzi Tulahuen amastigotes transfected in L929 cells assessed as inhibition of parasite growth. Format: toxicity, cell-based. As to conditions: read-out: Ratio CC50/IC50.
Data set [14] concerns Trypanosoma cruzi. As to the kind of experiment: Antitrypanosomal activity against Trypanosoma cruzi Tulahuen amastigotes transfected in L929 cells assessed as inhibition of parasite growth incubated for 96 hrs by CPRG based spectrophotometric analysis. The following applies: L929, 96 h. Format: functional, organism-based.
Data set [15] concerns Trypanosoma cruzi. Briefly: Induction of apoptosis in Trypanosoma cruzi Y strain trypomastigotes assessed as late apoptosis at 9.64 uM incubated for 24 hrs by Annexin V-FITC/7AAD staining based flow cytometry. Format: functional, organism-based.
In data set [16] the test system is Trypanosoma cruzi. As to the kind of experiment: Induction of DNA damage in Trypanosoma cruzi Y strain trypomastigotes at 2 times IC50 incubated for 24 hrs by acridine orange staining based flow cytometry. Format: functional, organism-based.
A short description of data set [17]: Selectivity index, ratio of CC50 for cytotoxicity against mouse RAW264.7 cells to IC50 for antitrypanosomal activity against Trypanosoma cruzi Y strain trypomastigotes transfected in African green monkey Vero cells assessed as inhibition of parasite growth. The following applies: read-out: Ratio CC50/IC50. Format: toxicity, cell-based.
Data set [18] concerns Trypanosoma cruzi. As to the kind of experiment: Antitrypanosomal activity against Trypanosoma cruzi Dm28 epimastigotes assessed as inhibition of parasite growth incubated for 96 hrs by Neubauer chamber based analysis. The class given is functional, organism-based. As to conditions: Dm28, 96 h.
Data set [19] has as its system Trypanosoma cruzi. As to the kind of experiment: Induction of apoptosis in Trypanosoma cruzi Y strain trypomastigotes assessed as late apoptosis at 131.92 uM incubated for 24 hrs by Annexin V-FITC/7AAD staining based flow cytometry. The class given is functional, organism-based.
In data set [20] the test system is Trypanosoma cruzi. As to the kind of experiment: Induction of DNA damage in Trypanosoma cruzi Y strain trypomastigotes at 1 times IC50 incubated for 24 hrs by acridine orange staining based flow cytometry. Format: functional, organism-based.
The subject of data set [21] is Trypanosoma cruzi. Briefly: Induction of apoptosis in Trypanosoma cruzi Y strain trypomastigotes assessed as necrosis at 131.92 uM incubated for 24 hrs by Annexin V-FITC/7AAD staining based flow cytometry. Format: functional, organism-based.

For the compound `C/C(=N\Nc1nc(-c2ccc(Cl)c(Cl)c2)cs1)c1ccc(Cl)cc1Cl`, the result in the data set with Trypanosoma cruzi [1], in the data set on Trypanosoma cruzi [2], in the data set on Trypanosoma cruzi [3], in the data set with Trypanosoma cruzi [4], in the data set on Trypanosoma cruzi [10] and in the data set with Trypanosoma cruzi [15] was Active. In addition, the outcome in the data set with Trypanosoma cruzi [16] was Active. Besides, the “fold change (FC)” value is reported as 4 in the data set on Trypanosoma cruzi [5] and 5 in the data set with Trypanosoma cruzi [8]. Further, the selectivity ratio in data set [6] amounted to 15.2; in [13], 3.44; in data set [17] it was 20.2. For the same compound, the outcome in the data set on Trypanosoma cruzi [7] and in the data set on Trypanosoma cruzi [12] was inactive. The CC50 (usually the concentration that lowers cell viability or growth by half) at 72 h in [9] was determined as 97.3 µM. Moreover, the IC50 (usually the concentration at which inhibition is half-maximal) in the data set with Trypanosoma cruzi [11] was 4.82 µM; with Trypanosoma cruzi [14] it was 28.3 µM; in the data set on Trypanosoma cruzi [18], 6.41 µM.
As to `C/C(=N\Nc1nc(-c2ccc3ccccc3c2)cs1)c1ccc(Cl)c(Cl)c1Cl`, the result in the data set with Trypanosoma cruzi [1], in the data set with Trypanosoma cruzi [2], in the data set with Trypanosoma cruzi [3], with Trypanosoma cruzi [10], with Trypanosoma cruzi [19] and with Trypanosoma cruzi [21] was Active. In addition, the figures for the selectivity ratio in data set [6], in data set [13] and in [17] were 8.86, 3.79 and 1.45, respectively. The result in the data set with Trypanosoma cruzi [7], with Trypanosoma cruzi [12], in the data set with Trypanosoma cruzi [20] and in the data set on Trypanosoma cruzi [16] was inactive. For the same compound, the CC50 at 72 h in data set [9] is 96.2 µM. Also, the figures for the half-inhibitory concentration (IC50) in the data set on Trypanosoma cruzi [11], in the data set on Trypanosoma cruzi [14] and in the data set with Trypanosoma cruzi [18] were 66 µM, 25.4 µM and 10.9 µM, respectively.
